Experiment [1] relates to CCRF-CEM cells. The experiment can be described thus: Cell proliferation and apoptosis (cell counting, Annexin V). The experiment is classed as cell-based, human. As to the method: (§1) Cell proliferation of CCRF-CEM cells or shRNA transfected CCRF-CEM cells, in the presence or absence of appropriate drug, was followed by cell counting of samples in triplicate using a hemocytometer and trypan blue. For apoptosis determinations of untransfected or shRNA transfected CCRF-CEMs, cells were stained with APC-conjugated Annexin-V (BD Biosciences) in Annexin Binding Buffer (Miltyeni Biotec) and analyzed by flow cytometry. For primary T-ALL samples, cell viability was assessed using the BD Cell Viability kit (BD Biosciences) coupled with the use of fluorescent counting beads as previously described (Armstrong et al., 2009). For this, cells were plated with MS5-DL1 stroma cells, and after 72 hours following drug treatment cells were harvested and stained with an APC-conjugated anti-human CD45 followed by a staining with the above kit according to the manufacturer's instructions.

The subject of experiment [2] is primary human T-ALL tumor cells. Briefly: Primary T-ALL cell viability on MS5-DL1 stroma. As to conditions: selective blockade of PI3Kδ. In kind it is cell-based. As to the method: as §1
The subject of experiment [3] is CD4+CD8+ DP thymocytes. The experiment can be described thus: Fetal thymus organ culture, flow cytometry. In kind it is cell-based, mouse. As to conditions: IC87114 10 μM, 1 week. The source says: Thymus lobes were obtained from mouse embryos, with embryonic day 0 (EO) considered the day of vaginal plug detection. Fetal thymus organ cultures were used to compare the effects of pharmacologic blockade of p110δ activity on thymocyte development in WT, p110δ^−/−, and p110γ^−/− mice. Briefly, 3 to 4 intact thymi were placed on bare filter inserts (transwell, 3-μm pore size; Corning Costar, Cambridge, MA) and then were inserted into wells containing DMEM, 10% FCS supplemented with either p110δ-specific inhibitor IC87114 (10 μM) or vehicle control (DMSO), and incubated for 1 week at 37° C. in 5% CO2. Thymocyte differentiation was evaluated by flow cytometry.
(A flow cytometer gives signals particle by particle.)

Experiment [4] deals with Akt/PKB phosphorylation. The experiment can be described thus: TCR-induced Akt/PKB phosphorylation in thymocytes (Western blot). The note with it: p110γ−/− thymocytes; IC87114 10 μM. The experiment is classed as cell-based, mouse. As for the experimental part:
Cell lysates (from cell lines or thymocytes) were prepared on ice in M-PER Mammalian Protein Extraction reagent (Pierce) containing a cocktail of protease and phosphatase inhibitors (Swat et al., 2006). Equal amounts of total protein from lysates were subjected to SDS-PAGE, transferred to PVDF membrane (Immobilon-P, Millipore), and membranes probed by overnight incubation with appropriate primary antibodies. Bound antibodies were visualized with HRP-conjugated secondary antibodies and ECL chemistry (SuperPico West, Pierce).
To assess the requirement for p110δ in TCR-induced phosphorylation of Akt/PBK, single-cell suspensions of thymocytes (1×10^8/mL) from PI3Kγ-deficient animals were incubated with the p110δ-specific inhibitor IC87114 (10 μM) or with vehicle control (DMSO) for 30 minutes before TCR cross-linking, as described for the Ca^2+ flux assay. Aliquots (100 μL) were collected at 0, 10, 30, and 60 minutes after TCR cross-linking, briefly centrifuged to pellet, and subsequently lysed with ice-cold M-Per (Pierce, Rockford, IL) (according to the manufacturer's recommendations) that contained a cocktail of phosphatase and protease inhibitors (Puri et al., 2005). Lysates were clarified by centrifugation (12,000 g for 15 minutes at 4° C.), and total and phosphorylated Akt/PBK were determined by Western blot analysis.
On the technique in general: Immunoblotting shows a protein as a band on a membrane.

The mark [5] stands for this setting: CCRF-CEM with p110γ shRNA knockdown, IC87114 10 μM.

Bounds are passed on as bounds.

The values that follow come from US11969428B2, “Methods and pharmaceutical compositions for treating lymphoid malignancy” (priority 2011, dated 2024).

Take `Cc1ccccc1-n1c(Cn2cnc3c(N)ncnc32)nc2cccc(C)c2c1=O` [IC87114, reference compound]: the proliferation and apoptosis entry in experiment [1] (CCRF-CEM containing empty vector alone, IC87114) is on record as “no major effect”. For the same compound, in experiment [1] (setting [5]), the apoptosis entry is recorded as “promoted apoptosis” and the proliferation result was “prevented proliferation”. The “viability of primary human T-ALL samples” value in experiment [2] is given as “ineffective”. Further, the “reduction in the population of CD4+CD8+ DP thymocytes” value in experiment [3] (p110γ−/− day 14.5 fetal thymi, mean±SE) is given as 69.2%±2.7%. For the same compound, the “decrease in DP cells” value in experiment [3] (p110δ−/− or WT control fetal thymi) is listed as no more than 10%. In experiment [4], the “phosphorylated form of Akt/PKB after TCR cross-linking” value is given as “not detected”.
